The values that follow are results of earlier work, collected in PMC11521309, “A novel 4-aminoquinoline chemotype with multistage antimalarial activity and lack of cross-resistance with PfCRT and PfMDR1 mutants” (PLOS Pathogens, 2024).

The test system of data set [1] is P. falciparum FCB^KD1. Also noted: method as in ref 2 Sidhu et al. 2006. As to conditions: means ± SEM, N 4; ref 2 Sidhu et al. 2006; read-out: IC50 FCBKD1; cited from earlier work.
In data set [2] the test system is P. falciparum Dd2^Dd2. Also noted: key to Phenotype, Dd2^Dd2: S: sensitive; R: resistant. The following applies: cited from earlier work.
Data set [3] deals with P. falciparum Dd2^G353V. Also noted: key to Phenotype, Dd2^G353V: S: sensitive; R: resistant. The following applies: cited from earlier work.
For data set [4], the system named is P. falciparum NF10^NF. Also noted: method as in ref 1 Veiga et al. 2016. As to conditions: means ± SEM, N 6; ref 1 Veiga et al. 2016; read-out: IC50 NF10NF; cited from earlier work.
In data set [5] the test system is P. falciparum Dd2^I218F. Also noted: key to Phenotype, Dd2^I218F: S: sensitive; R: resistant. The following applies: cited from earlier work.
[6] abbreviates: Dd2I218F, mean ± SEM, ref 2 (Dhingra et al., 2019).

One may read the IC50 as the concentration at which inhibition is half-maximal. Broadly, the IC90 is the point of the concentration-response curve where the effect stands at 90%. `CCN(CC)CCCC(C)Nc1ccnc2cc(Cl)ccc12` (stereo not shown) [CQ, chloroquine]: the half-maximal inhibitory concentration (IC50) is 0.242 ± 0.0439 µM in data set [1]; 0.157 ± 0.0093 µM in data set [2] (Dd2Dd2, mean ± SEM, ref 1 (Ross et al., 2018)); 0.0546 ± 0.0049 µM in data set [3] (Dd2G353V, mean ± SEM, ref 1 (Ross et al., 2018)); 0.216 ± 0.0153 µM in data set [4]; 0.0367 ± 0.0043 µM in data set [5] (setting [6]). Further, the IC90 is 0.214 ± 0.0074 µM in data set [2] (Dd2Dd2, mean ± SEM, ref 2 (Dhingra et al., 2019)) and 0.0853 ± 0.0049 µM in data set [5] (setting [6]). In data set [2] (ref [19],[20],[51]), the “Phenotype, Dd2^Dd2” value is on record as “R”. The “Phenotype, Dd2^G353V” value in data set [3] (ref [19],[20],[51]) is recorded as “S”. Moreover, the “Phenotype, Dd2^I218F” value in data set [5] (ref [19],[20],[51]) was “S”.
